Assay results taken from patent publication US10358446B2, “Bruton's tyrosine kinase inhibitors” (Zibo Biopolar Changsheng Pharmaceutical Co. Ltd., priority 2015, dated 2019).
pIC50: −log10 of the molar value.

target: BTK (Homo sapiens (Human), UniProt Q06187); experiment: Btk kinase assay (HTRF); format: biochemical; details: [ATP]=80 μM, BTK=3.4 nM; read-out: BTK Inhibition
Outline: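 HTRF kinase read-out (665/615 nm ratio, excitation 330 nm) after EDTA quench and 1 h detection incubation. Reaction: 3.4 nM BTK, ATP 80 μM, peptide substrate 1 μM, compound, HEPES pH 7.0 buffer, 1 h; IC50 derived using uninhibited and enzyme-free controls.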

Sequence of BTK (Q06187 whole entry, species assumed): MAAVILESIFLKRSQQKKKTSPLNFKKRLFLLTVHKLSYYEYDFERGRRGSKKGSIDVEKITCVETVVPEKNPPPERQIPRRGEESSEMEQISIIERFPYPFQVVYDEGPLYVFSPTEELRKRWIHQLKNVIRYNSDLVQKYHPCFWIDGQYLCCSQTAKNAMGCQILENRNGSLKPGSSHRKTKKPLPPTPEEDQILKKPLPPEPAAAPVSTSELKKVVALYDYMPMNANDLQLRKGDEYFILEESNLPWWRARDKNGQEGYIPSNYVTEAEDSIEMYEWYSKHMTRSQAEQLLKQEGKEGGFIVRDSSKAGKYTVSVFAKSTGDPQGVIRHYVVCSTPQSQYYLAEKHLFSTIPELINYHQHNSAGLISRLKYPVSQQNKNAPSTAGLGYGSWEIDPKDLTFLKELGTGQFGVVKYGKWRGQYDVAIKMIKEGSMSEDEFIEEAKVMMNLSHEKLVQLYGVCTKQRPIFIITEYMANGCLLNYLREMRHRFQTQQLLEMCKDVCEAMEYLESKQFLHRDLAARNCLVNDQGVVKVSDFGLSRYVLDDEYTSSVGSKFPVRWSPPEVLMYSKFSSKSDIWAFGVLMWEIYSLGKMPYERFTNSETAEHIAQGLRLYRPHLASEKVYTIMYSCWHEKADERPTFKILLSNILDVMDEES

| pIC50 | Compound |
| --- | --- |
| 6.00 to 7.00 | C=CC(=O)Nc1cccc(-n2c(=O)n(-c3ccc(Oc4cc(F)cc(Cl)c4)cc3)c3cnccc32)c1 [Example 129, N-(3-(3-(4-(3-chloro-5-fluorophenoxy)phenyl)-2-oxo-2,3-dihydro-1H-imidazo[4,5-c]pyridin-1-yl)phenyl)acrylamide] |
| 6.00 to 7.00 | C=CC(=O)Nc1cccc(-n2c(=O)n(-c3ccc(OCc4ccccc4F)c(F)c3)c3cnccc32)c1 [Example 217, N-(3-(3-(3-fluoro-4-((2-fluorobenzyl)oxy)phenyl)-2-oxo-2,3-dihydro-1H-imidazo[4,5-c]pyridin-1-yl)phenyl)acrylamide] |
| 6.00 to 7.00 | C=CC(=O)Nc1cccc(-n2c(=O)n(-c3ccc(OCc4ccc(Cl)cc4F)cc3)c3cnccc32)c1 [Example 245, N-(3-(3-(4-((4-chloro-2-fluorobenzyl)oxy)phenyl)-2-oxo-2,3-dihydro-1H-imidazo[4,5-c]pyridin-1-yl)phenyl)acrylamide] |
| 7.00 to 8.00 | C=CC(=O)N1CC[C@@H](n2c(=O)n(-c3ccc(Oc4cccc(F)c4)cc3)c3cnccc32)C1 [Example 84, (R)-1-(1-acryloylpyrrolidin-3-yl)-3-(4-(3-fluorophenoxy)phenyl)-1H-imidazo[4,5-c]pyridin-2(3H)-one] |
| ≥ 8.00 | C=CC(=O)N1CC[C@@H](n2c(=O)n(-c3ccc(Oc4ccccc4)cc3)c3cncc(C)c32)C1 [Example 176, (R)-1-(1-acryloylpyrrolidin-3-yl)-7-methyl-3-(4-phenoxyphenyl)-1H-imidazo[4,5-c]pyridin-2(3H)-one] |

The next lines start with the compound.

| Compound | pIC50 |
| --- | --- |
| C=CC(=O)N1CC[C@@H](n2c(=O)n(-c3ccc(Oc4cccc(OC)c4F)cc3)c3cncc(C)c32)C1 [Example 172, (R)-1-(1-acryloylpyrrolidin-3-yl)-3-(4-(2-fluoro-3-methoxyphenoxy)phenyl)-7-methyl-1H-imidazo[4,5-c]pyridin-2(3H)-one] | ≥ 8.00 |
| C=CC(=O)Nc1cccc(-n2c(=O)n(-c3ccc(Oc4cccc(Cl)c4Cl)cc3)c3cnccc32)c1 [Example 98, N-(3-(3-(4-(2,3-dichlorophenoxy)phenyl)-2-oxo-2,3-dihydro-1H-imidazo[4,5-c]pyridin-1-yl)phenyl)acrylamide] | 7.00 to 8.00 |
| C=CC(=O)N1CC[C@@H](n2c(=O)n(-c3ccc(Oc4ccccc4)cc3)c3c(C#N)nccc32)C1 [Example 65] | 5.00 to 6.00 |
| C=CC(=O)N1CC[C@H](n2c(=O)n(-c3ccc(Oc4ccccc4)cc3)c3/c(=N/O)[nH]cnc32)C1 [Example 177, (S,Z)-9-(1-acryloylpyrrolidin-3-yl)-6-(hydroxyimino)-7-(4-phenoxyphenyl)-7,9-dihydro-1H-purin-8(6H)-one] | 6.00 to 7.00 |
| C=CC(=O)N1CCC(n2c(=O)n(-c3ccc(Oc4ccncc4)cc3)c3cnccc32)C1 (stereo not shown) [Example 164, 1-(1-acryloylpyrrolidin-3-yl)-3-(4-(pyridin-4-yloxy)phenyl)-1H-imidazo[4,5-c]pyridin-2(3H)-one] | 5.00 to 6.00 |
| C=CC(=O)Nc1cccc(-n2c(=O)n(-c3ccc(OCc4ccc(Cl)cc4)cc3)c3cnccc32)c1 [Example 221, N-(3-(3-(4-((4-chlorobenzyl)oxy)phenyl)-2-oxo-2,3-dihydro-1H-imidazo[4,5-c]pyridin-1-yl)phenyl)acrylamide] | 7.00 to 8.00 |
| C=CC(=O)N1CC[C@@H](n2c(=O)n(-c3cccc(Oc4cccc(F)c4C)c3)c3cnccc32)C1 [Example 55, (R)-1-(1-acryloylpyrrolidin-3-yl)-3-(3-(3-fluoro-2-methylphenoxy)phenyl)-1H-imidazo[4,5-c]pyridin-2(3H)-one] | 7.00 to 8.00 |
| C=CC(=O)Nc1cccc(-n2c(=O)n(-c3ccc(Oc4cccc(OC(F)(F)F)c4)cc3)c3cnccc32)c1 [Example 70, N-(3-(2-oxo-3-(4-(3-(trifluoromethoxy)phenoxy)phenyl)-2,3-dihydro-1H-imidazo[4,5-c]pyridin-1-yl)phenyl)acrylamide] | 5.00 to 6.00 |
